Where no end group is shown, it is not given here.
Key:
Type in all cases: in vivo
[1] = tested on: pig model of RVO (branch retinal vein occlusion); test: OCT-measured maximal retinal thickness in a pig model of RVO; conditions: 21.2 μg/eye intra-vitreally immediately following RVO, 24 h after RVO
Experimental: Maximal retina thickness was determined 24 h after RVO from Optical Coherence Tomography images. Values are mean±s.e.mean. Comparison of values was performed by a one-way ANOVA following by a student t-test.
(§1) Mixed breed (Large White×Landrace×Pietrain) female pigs weighing 50 to 60 kg aged of 5 to 6 months were used. Following intramuscular injection of ketamine (10 mg/kg), azaperone (2 mg/kg) and atropine (0.02 mg/kg), anesthesia was induced by intravenous sodium thiopental (10 mg/kg). After tracheal intubation, anesthesia was maintained with isoflurane (1-2% in 100% O2) using a Hallowell ventilator (15 to 20 rpm; pressure at 20 cmH2O).
(§2) Pupil was dilated by tropicamide. Conjunctival disinsertion was followed by a 0.9 mm sclerotomy, 3 mm from the limbus. The fundus was observed using a plano-concave lens and the axial light of the operating microscope (Microscope OPMI 6-C, Zeiss, Germany). Branch retinal vein occlusion (RVO) of the major temporal vein was performed by transvitreal cauterization using a 300 micron probe (GN 300, Aesculap, Tuttlingen, Germany). Completion of the occlusion was assessed by the complete arrest of blood flow upstream of the occlusion site. Both eyes were submitted to RVO.
Animals that were submitted to RVO were randomised to receive either the vehicle or the drug (10 to 14 pigs/group). […]

[2] = tested on: pig model of RVO (branch retinal vein occlusion); test: Spontaneous retinal vein reperfusion 24 h after RVO in the pig; conditions: 21.2 μg/eye intra-vitreally immediately following RVO
Experimental: as §1, §2
Animals that were submitted to RVO were randomised to receive either the vehicle or the drug (10 to 14 pigs/group). Accordingly, 100 μl of SEQ ID No 23 in solution (dosage of 21.2 μg/eye) or of the corresponding vehicle (saline) was injected intra-vitreally, immediately following RVO.

[3] = tested on: pig model of RVO (branch retinal vein occlusion); test: Evans Blue dye retinal concentration (extra-cellular retinal oedema) in a pig model of RVO; conditions: 21.2 μg/eye intra-vitreally immediately following RVO, 24 h following RVO, p<0.01
Experimental: The amount of Evans Blue dye concentration into the retinal tissue reflects plasma extravasation and the extent of oedema. Control values represent retina Evans Blue Dye content of 2 eyes that were left non-operated and non-treated whilst sham-operated eyes (n=4) were submitted to the surgical procedure but without occlusion (See Methods). Values are mean±s.e.mean. Comparison of values was performed by a one-way ANOVA following by a student t-test. **, p<0.01
as §1
Pupil was dilated by tropicamide. […] Completion of the occlusion was assessed by the complete arrest of blood flow upstream of the occlusion site. […]
After OCT measurement, each animal received Evans Blue dye at 45 mg/kg i.v. and venous blood samples (approximately 1 ml) were obtained at 15 minutes intervals for 2 hours. […] Evans Blue dye concentration in plasma samples and in retina tissue was measured by spectrophotometry at both 620 nm and 740 nm.

Sequence: EAMHSFCAFKADDGPCRAAHPRWFFNIFTRQCEEFIYGGCEGNQNRFESLEECKKMCTRD (cysteine pairing not given here) [SEQ ID No 23]
- Increase of maximal retinal thickness as measured by OCT [1]: did not modify the increase of maximal retinal thickness
- % of reperfused retinal vein at 24 h (spontaneous reperfusion, treated eyes) [2]: 30%
- Number of reperfused retinal vein at 24 h ([2]; 13 pigs/26 eyes): 8
- Reduction of Evans Blue dye retinal concentration (extent of extra-cellular oedema) [3]: 47%

Reference: patent US9107928B2, “Compositions and methods for treating ophthalmic disorders” (Dyax Corp., priority 2006, dated 2015)
